Entries after “also recorded” stand apart in the source; their conditions may differ. Like-named read-outs stand apart in the source and are kept apart here.
Assays:
yeast α-glucosidase = yeast α-glucosidase (Saccharomyces cerevisiae, UniProt P53341); assay: biochemical; format: biochemical
[1] = biological target: T1, α-amylase (pancreatic form) (Homo sapiens, UniProt P04746); assay: α-Amylase inhibition assay; format: biochemical; settings: read-out: IC50 against α-amylase
T1 sequence (P04746 16-511): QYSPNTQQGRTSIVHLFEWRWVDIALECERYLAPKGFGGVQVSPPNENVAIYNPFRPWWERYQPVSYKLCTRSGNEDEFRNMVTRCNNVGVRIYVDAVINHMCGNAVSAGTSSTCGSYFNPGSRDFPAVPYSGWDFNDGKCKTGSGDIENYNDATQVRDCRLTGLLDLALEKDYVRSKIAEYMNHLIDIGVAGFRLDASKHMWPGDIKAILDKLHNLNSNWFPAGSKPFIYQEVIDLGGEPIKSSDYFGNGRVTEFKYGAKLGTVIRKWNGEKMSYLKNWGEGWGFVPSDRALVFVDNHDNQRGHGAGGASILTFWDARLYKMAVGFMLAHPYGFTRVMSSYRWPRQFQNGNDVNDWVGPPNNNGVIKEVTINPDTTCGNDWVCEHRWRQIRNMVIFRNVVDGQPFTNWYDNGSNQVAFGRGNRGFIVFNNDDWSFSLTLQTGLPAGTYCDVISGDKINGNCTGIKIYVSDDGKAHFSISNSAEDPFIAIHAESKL
Procedure: Inhibitory activity of the most poten new α-glucosidase inhibitors 5k, 5j, and 5f was evaluated against α-amylase (pancreatic form)[15].
(Supplementary Information S1).

α-glucosidase [2] = biological target: α-glucosidase (Saccharomyces cerevisiae, UniProt P53341); assay: Kinetics of α-glucosidase inhibition (Lineweaver–Burk plot and secondary plot); format: biochemical, yeast
Description: As the result, with increasing concentration of compound 5k, Vmax values remained constant while Km values increased.
In vitro assays (inhibition effects and kinetics) of the new compounds 5a–n performed according to pervious reported work[15] (Supplementary Information S1).

α-glucosidase [3] = biological target: α-glucosidase; set-up: method as in doi:10.1007/s00044-020-02603-7; settings: template compounds A, read-out: IC50 for Compounds A (Fig. 3); cited from earlier work
[4] = read-out: IC50 against α-glucosidase

Sequence of yeast α-glucosidase (P53341 whole entry): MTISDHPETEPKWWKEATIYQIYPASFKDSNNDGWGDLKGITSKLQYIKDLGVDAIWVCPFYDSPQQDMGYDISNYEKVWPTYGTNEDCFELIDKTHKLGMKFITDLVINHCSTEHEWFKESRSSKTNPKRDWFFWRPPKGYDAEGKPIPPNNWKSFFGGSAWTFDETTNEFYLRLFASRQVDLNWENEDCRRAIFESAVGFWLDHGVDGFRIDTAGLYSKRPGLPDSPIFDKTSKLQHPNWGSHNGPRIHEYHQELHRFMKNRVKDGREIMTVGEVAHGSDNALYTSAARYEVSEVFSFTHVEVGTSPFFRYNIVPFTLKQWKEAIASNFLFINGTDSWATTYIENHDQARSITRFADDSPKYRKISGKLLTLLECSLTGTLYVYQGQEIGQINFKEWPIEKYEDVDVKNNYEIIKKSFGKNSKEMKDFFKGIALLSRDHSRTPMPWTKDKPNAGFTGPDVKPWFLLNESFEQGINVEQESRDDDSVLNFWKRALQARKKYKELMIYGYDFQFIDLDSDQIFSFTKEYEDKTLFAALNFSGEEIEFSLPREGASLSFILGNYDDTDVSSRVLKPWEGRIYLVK
Sequence of α-glucosidase (Saccharomyces cerevisiae, UniProt P53341) (P53341 whole entry): as above

SMILES | IC50 (yeast α-glucosidase) [µM] | melting point [°C] | IC50 (yeast α-glucosidase; [4]) [µM] | also measured
O=C(Cn1cc(CNC(=O)c2cc3ccccc3[nH]2)nn1)Nc1ccccc1 [Compound 5a, N-((1-(2-oxo-2-(phenylamino)ethyl)-1H-1,2,3-triazol-4-yl)methyl)-1H-indole-2-carboxamide] | 62.9 ± 0.3 | 216 to 218 |  | 
Cc1cccc(NC(=O)Cn2cc(CNC(=O)c3cc4ccccc4[nH]3)nn2)c1 [Compound 5b, N-((1-(2-oxo-2-(m-tolylamino)ethyl)-1H-1,2,3-triazol-4-yl)methyl)-1H-indole-2-carboxamide] | 63.6 ± 1.1 | 224 to 226 |  | 
Cc1ccc(NC(=O)Cn2cc(CNC(=O)c3cc4ccccc4[nH]3)nn2)cc1 [Compound 5c, N-((1-(2-oxo-2-(p-tolylamino)ethyl)-1H-1,2,3-triazol-4-yl)methyl)-1H-indole-2-carboxamide] | 42.6 ± 0.9 | 231 to 233 |  | 
Cc1cccc(NC(=O)Cn2cc(CNC(=O)c3cc4ccccc4[nH]3)nn2)c1C [Compound 5d, N-((1-(2-((2,3-dimethylphenyl)amino)-2-oxoethyl)-1H-1,2,3-triazol-4-yl)methyl)-1H-indole-2-carboxamide] |  | 205 to 207 | 66 ± 1.8 | 
Cc1cccc(C)c1NC(=O)Cn1cc(CNC(=O)c2cc3ccccc3[nH]2)nn1 [Compound 5e, N-((1-(2-((2,6-dimethylphenyl)amino)-2-oxoethyl)-1H-1,2,3-triazol-4-yl)methyl)-1H-indole-2-carboxamide] |  | 208 to 210 | 111 ± 1.6 | 
CCc1ccc(NC(=O)Cn2cc(CNC(=O)c3cc4ccccc4[nH]3)nn2)cc1 [Compound 5f, N-((1-(2-((4-ethylphenyl)amino)-2-oxoethyl)-1H-1,2,3-triazol-4-yl)methyl)-1H-indole-2-carboxamide] |  | 203 to 205 | 40.2 ± 1.6 | IC50 [1]: > 150 µM
COc1ccc(NC(=O)Cn2cc(CNC(=O)c3cc4ccccc4[nH]3)nn2)cc1 [Compound 5g, N-((1-(2-((4-methoxyphenyl)amino)-2-oxoethyl)-1H-1,2,3-triazol-4-yl)methyl)-1H-indole-2-carboxamide] | 83 ± 0.7 | 209 to 211 |  | 
O=C(Cn1cc(CNC(=O)c2cc3ccccc3[nH]2)nn1)Nc1cccc(Cl)c1 [Compound 5h, N-((1-(2-((3-chlorophenyl)amino)-2-oxoethyl)-1H-1,2,3-triazol-4-yl)methyl)-1H-indole-2-carboxamide] |  | 211 to 213 |  | 
O=C(Cn1cc(CNC(=O)c2cc3ccccc3[nH]2)nn1)Nc1ccc(Cl)cc1 [Compound 5i, N-((1-(2-((4-chlorophenyl)amino)-2-oxoethyl)-1H-1,2,3-triazol-4-yl)methyl)-1H-indole-2-carboxamide] | 83 ± 1.6 | 225 to 227 |  | 
O=C(Cn1cc(CNC(=O)c2cc3ccccc3[nH]2)nn1)Nc1ccc(Cl)cc1Cl [Compound 5j, N-((1-(2-((2,4-dichlorophenyl)amino)-2-oxoethyl)-1H-1,2,3-triazol-4-yl)methyl)-1H-indole-2-carboxamide] |  | 233 to 235 | 39.6 ± 1.4 | IC50 [1]: > 150 µM
O=C(Cn1cc(CNC(=O)c2cc3ccccc3[nH]2)nn1)Nc1ccc(Br)cc1 [Compound 5k, N-((1-(2-((4-bromophenyl)amino)-2-oxoethyl)-1H-1,2,3-triazol-4-yl)methyl)-1H-indole-2-carboxamide] | 26.8 ± 0.5 | 236 to 238 |  | type of inhibition (α-glucosidase [2]; Lineweaver–Burk plot, Vmax constant, Km increased): competitive type of inhibition; also recorded: competitive inhibitor; Ki (α-glucosidase [2]; secondary plot of Lineweaver–Burk plots): 26 µM; IC50 [1]: > 150 µM; improvement in the inhibition effect in comparison to standard inhibitor acarbose (yeast α-glucosidase; ratio of α-glucosidase IC50 values, acarbose vs compound): ~28 fold
O=C(Cn1cc(CNC(=O)c2cc3ccccc3[nH]2)nn1)Nc1cccc([N+](=O)[O-])c1 [Compound 5l, N-((1-(2-((3-nitrophenyl)amino)-2-oxoethyl)-1H-1,2,3-triazol-4-yl)methyl)-1H-indole-2-carboxamide] |  | 254 to 256 | 110.3 ± 0.6 | 
O=C(Cn1cc(CNC(=O)c2cc3ccccc3[nH]2)nn1)Nc1ccc([N+](=O)[O-])cc1 [Compound 5m, N-((1-(2-((4-nitrophenyl)amino)-2-oxoethyl)-1H-1,2,3-triazol-4-yl)methyl)-1H-indole-2-carboxamide] |  | 259 to 261 | 78.8 ± 0.3 | 
Cc1cc([N+](=O)[O-])ccc1NC(=O)Cn1cc(CNC(=O)c2cc3ccccc3[nH]2)nn1 [Compound 5n, N-((1-(2-((2-methyl-4-nitrophenyl)amino)-2-oxoethyl)-1H-1,2,3-triazol-4-yl)methyl)-1H-indole-2-carboxamide] |  | 229 to 231 | 43.5 ± 0.7 | 
O=C(Cn1cc(CNC(=O)c2c3ccccc3nc3ccccc23)nn1)Nc1ccc(Br)cc1 [Compounds A, R = 4-Br] |  |  |  | IC50 (α-glucosidase [3]): 269 ± 2.8 µM
O=C(Cn1cc(CNC(=O)c2c3ccccc3nc3ccccc23)nn1)Nc1ccc(Cl)cc1 [Compounds A, R = 4-Cl] |  |  |  | IC50 (α-glucosidase [3]): 309 ± 3.4 µM
Cc1ccc(NC(=O)Cn2cc(CNC(=O)c3c4ccccc4nc4ccccc34)nn2)cc1 [Compounds A, R = 4-Me] |  |  |  | IC50 (α-glucosidase [3]): 519 ± 6.7 µM
O=C(Cn1cc(CNC(=O)c2c3ccccc3nc3ccccc23)nn1)Nc1ccc([N+](=O)[O-])cc1 [Compounds A, R = 4-NO2] |  |  |  | IC50 (α-glucosidase [3]): 152 ± 1.7 µM
O=C(Cn1cc(CNC(=O)c2c3ccccc3nc3ccccc23)nn1)Nc1ccccc1 [Compounds A, R = H] |  |  |  | IC50 (α-glucosidase [3]): 171 ± 2.1 µM
